Data on twelve molecules can be found in US7553823B2, “C-pyrazole A2A receptor agonists” (CV Therapeutics, Inc., priority 1999, dated 2009).

Assay [1] addresses A2A receptor (Sus scrofa, UniProt K9IW67). As to the kind of experiment: Affinity for the A2A receptor in a pig striatum membrane prep (displacement of tritiated ZM 241385). The assay is classed as binding. The method, then: Compounds of this invention were assayed to determine their affinity for the A2A receptor in a pig striatum membrane prep. Briefly, 0.2 mg of pig striatal membranes were treated with adenosine deaminase and 50 mM Tris buffer (pH=7.4) followed by mixing. […] After incubation at 23 C for 2 h, then the solutions were filtered using a membrane harvester using multiple washing of the membranes (3×). The filter disks were counted in scintillation cocktail affording the amount of displacement of tritiated ZM by the competitive binding compounds of this invention. Greater than a 5 point curve was used to generate IC50's and the number of experiments is indicated in the column marked in Table 1 below.

In assay [2] the test system is A2A AdoR. As to the kind of experiment: Coronary blood flow and reversal time of coronary vasodilation in open-chest anesthetized pigs. The settings on record: pig.
Protocol: Farm pigs weighing 22-27 kg were used in this study. […] In addition, animals were used in accordance with the guidelines of the University of Kentucky Institutional Animal Care and Use Protocol.
Anesthesia was anesthetized with ketamine (20 mg/kg, i.m.) and sodium pentobarbital (15-18 mg/kg i.v.). Anesthesia was maintained with additional sodium pentobarbital (1.5-2 mg/kg, i.v.) every 15-20 minutes. Ventilation was maintained via a tracheotomy using a mixture of room air and 100% O2. Tidal volume, respiratory rate and fraction of O2 in inspired air were adjusted to maintain normal arterial blood gas (ABG) and pH values. […] Lactate Ringers solution was administered via an ear or femoral vein, at 5-7 ml/kg/min after a initial bolus of 300-400 ml. A catheter was inserted into the femoral artery to monitor arterial blood pressure and to obtain ABG samples.
The heart was exposed through a median sternotomy, and suspended in a pericardial cradle. Left ventricular pressure (LVP) was measured with a 5F high fidelity pressure sensitive tip transducer (Millar Instruments, Houston, Tex.) placed in the left ventricular cavity via the apex and secured with a purse string suture. A segment of the left anterior descending coronary artery (LAD), proximal to the origin of the first diagonal branch, was dissected free of, surrounding tissue. A transmit time perivascular flow probe (Transonic Systems Inc., Ithaca, N.Y.) was placed around this segment to measure coronary blood flow (CBF). Proximal to the flow probe a 24 g modified angiocatheter was inserted for intracoronary infusions. […] A2A AdoR agonists were dissolved in DMSO to produce stock concentrations of 1-5 mM, which were diluted in 0.9% saline and infused at rates of 1-1.5 ml/min. The A2A AdoR agonists were administered intracoronary. To maintain blood pressure constant, phenylephrine was administered intravenously. The phenylephrine stock solution (30 mM) was prepared in distilled water.
Prior to initiating the experiment, a 30-minute stabilization period followed the completion of all instrumentation. After obtaining the baseline hemodynamic data the first intracoronary infusion of an A2A ADOR agonist was initiated. Infusions were maintained for 4-5 minutes to allow LAD CBF to reach a steadystate, after which the infusion was terminated. The time to recovery of 50% (t 0.5) and 90% (t 0.9) of baseline CBF were recorded. Ten to 15 minutes after CBF returned to pre-drug values a second infusion with a different agonist was started. […] The effect of a maximum of three different agonists was determined in each experiment.
Assay [3] deals with A2A adenosine receptor (Rattus norvegicus, UniProt P30543). The experiment in a line: Reversal time of coronary vasodilation after bolus injection in rat isolated perfused hearts.
Protocol: Animals were anesthetized by peritoneal injection of a cocktail containing ketamine and xylazine (ketamine 100 mg, xylazine 20 mg/ml). The chest was opened and the heart quickly removed. The heart was briefly rinse in ice-cold Krebs-Henseleit solution (see below), and the aorta cannulated. […] The heart was electrically paced at a fixed cycle length of 340 ms (250 beats/min) using a bipolar electrode place on the left atrium. The electrical stimuli were generated by a Grass stimulator (Model S48, W. Warwick, R.I) and delivered through a Stimuli Isolation Unit (Model SIU5, Astro-Med, Inc., NY) as square-wave pulses of 3 msec in duration and amplitude of at least twice the threshold intensity.
Coronary perfusion pressure (CPP) was measured using a pressure transducer, connected to the aortic cannula via a T-connector positioned approximately 3 cm above the heart. Coronary perfusion pressure was monitored throughout the experiment and recorded either on a chart recorder (Gould Recorder 2200S) or a computerized recording system (PowerLab/4S, ADInstruments Pty Ltd, Australia). Only hearts with CPP ranging from 60 to 85 mmHg (in the absence of drugs) were used in the study.
Protocol: Bolus injections. […] The times to 50% (t 0.5) and 90% (t 0.9) reversal of the decrease in CPP were measured. Each heart was exposed to a maximum of three vasodilators.
Assay [4] deals with A2A AdoR (Rattus norvegicus, UniProt P30543). The experiment in a line: Increase of coronary conductance in rat isolated perfused hearts.
Protocol: (§1) Adult Sprague Dawley rats and Hartley guinea pigs of either sex weighing from 230 to 260 grams and 300 to 350 grams, respectively were used in this study. Animals were anesthetized by peritoneal injection of a cocktail containing ketamine and xylazine (ketamine 100 mg, xylazin 20 mg/ml). The chest was opened and the heart quickly removed. The heart was briefly rinse in ice-cold Krebs-Henseleit solution (see below), and the aorta cannulated. […] The heart was electrically paced at a fixed cycle length of 340 ms (250 beats/min) using a bipolar electrode place on the left atrium. The electrical stimuli were generated by a Grass stimulator (Model S48, W. Warwick, R.I.) and delivered through a Stimuli Isolation Unit (Model SIU5, Astro-Med, Inc., NY) as square-wave pulses of 3-msec in duration and amplitude of at least twice the threshold intensity.
Coronary perfusion pressure (CPP) was measured using a pressure transducer, connected to the aortic cannula via a T-connector positioned approximately 3 cm above the heart. Coronary perfusion pressure was monitored throughout the experiment and recorded either on a chart recorder (Gould Recorder 2200S) or a computerized recording system (PowerLab/4S, ADinstruments Pty Ltd, Australia). Only hearts with CPP ranging from 60 to 85 mmHg (in the absence of drugs) were used in the study.
One concentration was made from the stock solution by dilution into saline to yield solution of either 2×10^−4 or 2×10^−5 M. These solutions were injected into the perfusion line of the apparatus as boluses of 20 μl. In some experiments the solutions were placed into a 30 ml glass syringe and the drugs were infused at rates necessary to achieve the desired perfusate concentrations (e.g, 10, 100 nM, etc).
Hearts were instrumented for continuous recording of coronary perfusion pressure (A2A response) and atrioventricular (A-V) conduction time or S-H interval (A1 response).
Assay [5] concerns the target T1, human A1 AdoR (Homo sapiens, UniProt P30542).
T1 construct: expressed in transfected cells
T1 sequence (P30542 1-326): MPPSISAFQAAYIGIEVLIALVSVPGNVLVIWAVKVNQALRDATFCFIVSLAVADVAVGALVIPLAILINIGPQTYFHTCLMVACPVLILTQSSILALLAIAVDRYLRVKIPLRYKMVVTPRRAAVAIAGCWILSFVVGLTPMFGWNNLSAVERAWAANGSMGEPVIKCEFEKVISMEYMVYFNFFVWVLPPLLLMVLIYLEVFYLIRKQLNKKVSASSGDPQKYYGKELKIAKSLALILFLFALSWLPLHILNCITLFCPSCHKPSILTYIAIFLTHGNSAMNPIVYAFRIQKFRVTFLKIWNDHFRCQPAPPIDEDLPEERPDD
As to the kind of experiment: Competition binding, [3H]DPCPX binding sites on CHO-hA1AdoR cell membranes. The settings on record: Gpp(NH)p 100 μM.

The target in assay [6] is human A2A AdoR (Homo sapiens, UniProt P29274). The experiment in a line: Competition binding, [3H]ZM241385 binding sites on HEK-hA2AAR cell membranes. As to conditions: for Ki: HEK-hA2AAR Cells.
Protocol: To make membranes, cells were detached from the culture plates into ice-cold 50 mmol/L Tris-HCI buffer (pH7.4). The cell suspensions were homogenized with Polytron at setting 4 for 30 seconds, and spun at 48,000 g for 15 minutes. The pellets were washed three times by re-suspension in ice-cold Tris-HCI buffer and centrifugation. The final pellet was re-suspended in a small volume of Tris-HCI, aliquoted and frozen at −80° C. until used for receptor binding assays. The protein concentration of membrane suspensions was determined using the Bradford method (Bio-Rad) with bovine serum as standards.
At the end of incubation, bound and free radioligands were separated by filtration through Whatman GF/C glass fiber filters using a Brandel tissue harvester (Gaithersburg, Md.). Triplicate determinations were performed for each concentration of the competing agent.
The affinity (Ki) of various CVT compounds for the A1 and A2A adenosine receptor were determined by their potency to compete for [^3H]CPX (A1) or [^3H]ZM241385 (A2A) binding sites on membranes derived from CHO-hA1AdoR, PC12 or HEK-HA2AAdoR cells.
The target in assay [7] is T2, A1 AdoR (Rattus norvegicus, UniProt P25099).
T2 construct: from tissue; host or cells: Sprague Dawley rat isolated perfused heart
T2 sequence (P25099 1-326): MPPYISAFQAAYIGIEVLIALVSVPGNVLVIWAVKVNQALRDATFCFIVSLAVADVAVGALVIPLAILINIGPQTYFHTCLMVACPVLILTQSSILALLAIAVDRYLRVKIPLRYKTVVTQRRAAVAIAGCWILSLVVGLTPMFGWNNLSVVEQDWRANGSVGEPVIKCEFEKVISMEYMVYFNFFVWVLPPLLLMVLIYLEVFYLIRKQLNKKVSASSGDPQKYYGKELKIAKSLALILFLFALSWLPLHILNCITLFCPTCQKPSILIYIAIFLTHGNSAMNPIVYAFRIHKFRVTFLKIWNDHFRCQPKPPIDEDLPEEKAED
The experiment in a line: A-V nodal conduction time (negative dromotropic effect) in rat isolated perfused hearts. As to conditions: Compound 18 0.1-30 μM, CVT510 100-400 nM. The method, then: In experiments in which A1 adenosine receptor-mediated negative dromotropic effect was measured, atrial and ventricular surface electrograms were recorded during constant atrial pacing. The effect of various adenosine receptor agonists on atrioventricular conduction time was determined as described previously by Jenkins and Belardinelli Circ. Res. 63: 97-116 (1988).
Rats and guinea pigs, of either sex weighing from 230 to 260 grams and 300 to 350 grams, respectively, were used in this study. Animals were anesthetized by peritoneal injection of a cocktail containing ketamine and xylazine (ketamine 100 mg, xylazine 20 mg/ml). The chest was opened and the heart quickly removed. The heart was briefly rinse in ice-cold Krebs-Henseleit solution (see below), and the aorta cannulated. […]
A1 adenosine receptor-mediated depression of A-V nodal conduction time (negative dromotropic effect) was measured. Atrial and ventricular surface electrograms in rats and H is bundle electrogram in guinea pigs, were recorded during constant atrial pacing. The effects of Compound 18 on atrioventricular conduction time and stimulus-to-His-bundle (S-H interval) were determined as described previously by Jenkins and Belardinelli (1988).
The effects of Compound 18 on coronary conductance (A2A effect) and atrioventricular conduction time or stimulus-to-His-bundle (S-H) interval (A1 effect) was then determined. […]

For assay [8], the target named is A2A AdoR (Cavia porcellus, UniProt P46616). As to the kind of experiment: Increase of coronary conductance in guinea pig isolated perfused hearts.
Protocol: as §1
Coronary perfusion pressure (CPP) was measured using a pressure transducer, connected to the aortic cannula via a T-connector positioned approximately 3 cm above the heart. Coronary perfusion pressure was monitored throughout the experiment and recorded either on a chart recorder (Gould Recorder 2200S) or a computerized recording system (PowerLab/4S, ADinstruments Pty Ltd, Australia). Only hearts with CPP ranging from 60 to 85 mmHg (in the absence of drugs) were used in the study. […]
The mark [9] stands for this setting: pig striatal membranes, tritiated ZM 241385 2 nM, 23 C 2 h, read-out: A2a Ki.
[10] abbreviates: intracoronary infusion 2 μg/kg/min.
Setting [11] is: intracoronary infusion 30 μg/kg/min.
Setting [12] is: intracoronary infusion 1 μg/kg/min.
Where [13] appears, read: rat isolated perfused hearts, bolus into perfusion line.

Where two headings read alike, the source gives them in different places. Some results are limits rather than exact numbers.

Chain of A2A receptor (K9IW67 1-409): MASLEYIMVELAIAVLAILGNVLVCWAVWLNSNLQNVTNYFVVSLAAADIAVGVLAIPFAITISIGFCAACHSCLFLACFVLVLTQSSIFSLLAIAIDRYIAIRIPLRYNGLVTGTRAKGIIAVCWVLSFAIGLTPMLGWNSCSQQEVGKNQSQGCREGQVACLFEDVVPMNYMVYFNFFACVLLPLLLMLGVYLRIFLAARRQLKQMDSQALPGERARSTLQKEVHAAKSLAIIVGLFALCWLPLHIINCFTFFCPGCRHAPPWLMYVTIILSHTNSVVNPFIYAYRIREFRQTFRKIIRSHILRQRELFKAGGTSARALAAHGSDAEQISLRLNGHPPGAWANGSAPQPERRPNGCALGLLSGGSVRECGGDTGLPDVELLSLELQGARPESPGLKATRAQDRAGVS
Chain of A2A adenosine receptor (P30543 whole entry, the tested form may be a part): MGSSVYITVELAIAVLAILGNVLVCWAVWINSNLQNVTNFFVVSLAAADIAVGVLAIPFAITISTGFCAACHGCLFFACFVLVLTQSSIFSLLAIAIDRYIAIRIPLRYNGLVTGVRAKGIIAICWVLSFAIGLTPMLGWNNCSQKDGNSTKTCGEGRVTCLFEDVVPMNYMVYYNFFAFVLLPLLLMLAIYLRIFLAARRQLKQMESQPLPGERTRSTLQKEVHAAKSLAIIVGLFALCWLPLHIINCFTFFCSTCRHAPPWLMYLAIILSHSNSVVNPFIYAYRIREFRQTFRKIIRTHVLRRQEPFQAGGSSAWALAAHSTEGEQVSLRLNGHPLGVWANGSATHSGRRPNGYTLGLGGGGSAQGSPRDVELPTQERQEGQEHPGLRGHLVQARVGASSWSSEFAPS
Chain of A2A AdoR (Rattus norvegicus, UniProt P30543) (P30543 whole entry, the tested form may be a part): as above
Chain of human A2A AdoR (P29274 whole entry): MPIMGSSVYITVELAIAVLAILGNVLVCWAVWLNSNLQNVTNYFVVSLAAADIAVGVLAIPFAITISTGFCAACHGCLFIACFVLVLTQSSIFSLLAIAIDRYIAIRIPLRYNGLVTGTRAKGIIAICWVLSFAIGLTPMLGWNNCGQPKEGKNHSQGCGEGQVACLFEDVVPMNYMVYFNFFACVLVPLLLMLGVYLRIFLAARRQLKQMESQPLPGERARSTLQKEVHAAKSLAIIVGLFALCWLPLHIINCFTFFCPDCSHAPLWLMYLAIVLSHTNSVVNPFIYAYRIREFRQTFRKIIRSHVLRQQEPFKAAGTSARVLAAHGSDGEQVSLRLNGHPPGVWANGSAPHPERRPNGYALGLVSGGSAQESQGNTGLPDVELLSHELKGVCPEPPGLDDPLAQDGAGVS
Chain of A2A AdoR (Cavia porcellus, UniProt P46616) (P46616 whole entry, the tested form may be a part): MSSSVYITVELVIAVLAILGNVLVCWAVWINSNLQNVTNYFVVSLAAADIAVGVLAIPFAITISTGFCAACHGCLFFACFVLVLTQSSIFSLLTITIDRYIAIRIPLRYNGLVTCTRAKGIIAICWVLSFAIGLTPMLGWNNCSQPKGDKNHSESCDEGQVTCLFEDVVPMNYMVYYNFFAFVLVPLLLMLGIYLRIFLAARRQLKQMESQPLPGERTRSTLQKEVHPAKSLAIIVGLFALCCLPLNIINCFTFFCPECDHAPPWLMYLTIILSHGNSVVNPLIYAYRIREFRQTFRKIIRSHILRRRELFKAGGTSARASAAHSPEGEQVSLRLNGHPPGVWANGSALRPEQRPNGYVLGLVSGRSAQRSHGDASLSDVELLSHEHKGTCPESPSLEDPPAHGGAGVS

For the molecule `Cn1cc(-c2nc(N)c3ncn([C@@H]4O[C@H](CO)[C@@H](O)[C@H]4O)c3n2)cn1` [Compound 19, (4S,2R,3R,5R)-2-[6-amino-2-(1-methylpyrazol-4-yl)purin-9-yl]-5-(hydroxymethyl)oxolane-3,4-diol], in assay [1] (setting [9]), the Ki is more than 10 µM.
Turning to `CCNC(=O)[C@H]1O[C@@H](n2cnc3c(N)nc(NCCc4ccc(CCC(=O)O)cc4)nc32)[C@H](O)[C@@H]1O` [CGS21680, reference compound], in assay [2] (setting [10]), the “t0.5, time to 50% reversal of the increase in coronary blood flow” value is on record as 9.7 ± 0.8 min and the “t0.9, time to 90% reversal of the increase in coronary blood flow” value stood at 21.4 ± 0.8 min.
In the case of `Nc1nc(-c2cn[nH]c2)nc2c1ncn2[C@@H]1O[C@H](CO)[C@@H](O)[C@H]1O` [Compound 23, (4S,2R,3R,5R)-2-(6-amino-2-pyrazol-4-ylpurin-9-yl)-5-(hydroxymethyl)oxolane-3,4-diol], the Ki in assay [1] (setting [9]) is more than 100 µM.
With `Nc1nc(-c2cnn(Cc3ccccc3)c2)nc2c1ncn2[C@@H]1O[C@H](CO)[C@@H](O)[C@H]1O` [Compound 12, (4S,2R,3R,5R)-2-{6-amino-2-[1-benzylpyrazol-4-yl]purin-9-yl}-5-(hydroxymethyl)oxolane-3,4-diol], in assay [3], the “t 0.5, time to 50% reversal of the increase in coronary conductance” value is listed as 4.1 ± 0.3 min and the “t 0.9, time to 90% reversal of the increase in coronary conductance” value is 9.8 ± 1.4 min. Besides, in assay [4], the “effect on coronary conductance” value is “concentration-dependent increase” and the “relative potency in increasing coronary conductance” value was “about as potent as adenosine”. The Ki in assay [1] came to 6.67 ± 1.12 µM. In assay [5] (read-out: Binding Affinity Ki, CHO-hA1AR), the Ki is 6.35 µM. Further, the Ki in assay [5] (read-out: Binding Affinity pKi ± SEM, CHO-hA1AR (converted)) is 6.03 µM. Moreover, in assay [2] (setting [11]), the “CBF ("Fold Increase") above baseline, maximal” value is recorded as 3.78 ± 0.70 fold; the “t0.5, time to 50% reversal of the increase in coronary blood flow” value turned out to be 2.3 ± 0.6 min; the “t0.9, time to 90% reversal of the increase in coronary blood flow” value came to 9.6 ± 1.0 min. In assay [6] (Binding Affinity Ki), the Ki is 13.7 µM. For the same molecule, in assay [6] (Binding Affinity pKi ± SEM), the Ki is 13.5 µM.
Consider `CC(C)(C)c1ccc(Cn2cc(-c3nc(N)c4ncn([C@@H]5O[C@H](CO)[C@@H](O)[C@H]5O)c4n3)cn2)cc1` [Compound 22, (4S,2R,3R,5R)-2-{6-amino-2-[1-(4-t-butylbenzyl)pyrazol-4-yl]purin-9-yl}-5-(hydroxymethyl)oxolane-3,4-diol], for which the Ki in assay [1] (setting [9]) came to 7.68 µM.
The same measure, in the same setting: the same measure for `CC(C)n1cc(-c2nc(N)c3ncn([C@@H]4O[C@H](CO)[C@@H](O)[C@H]4O)c3n2)cn1` [Compound 20, (4S,2R,3R,5R)-2-{6-amino-2-[1-(methylethyl)pyrazol-4-yl]purin-9-yl}-5-(hydroxymethyl)oxolane-3,4-diol]: approximately 10 µM.
For `OC[C@H]1OC(n2cnc3c(N[C@@H]4CCOC4)ncnc32)[C@H](O)[C@@H]1O` (stereo partly drawn) [CVT510, 2-{6-[((3R)oxolan-3-yl)amino]purin-9-yl}(4S,3R,5R)-5-(hydroxymethyl)oxolane-3,4-diol, reference compound], the “effect on A-V nodal conduction time” value in assay [7] is “significantly prolonged”.
For orientation: EC50 means the midpoint of the concentration-response curve. Regarding `Nc1nc(N/N=C/C2CCCCC2)nc2c1ncn2[C@@H]1O[C@H](CO)[C@@H](O)[C@H]1O` [WRC-0470, reference compound], in assay [3], the “t 0.5, time to 50% reversal of the increase in coronary conductance” value came out at 21.9 ± 0.9 min and the “t 0.9, time to 90% reversal of the increase in coronary conductance” value is reported as 27.9 ± 1.4 min. Besides, in assay [4], the EC50 amounted to 0.0006 ± 0.0002 µM and the “effect on coronary conductance” value is “concentration-dependent increase”. In addition, in assay [8], the response was half-maximal at 0.0024 ± 0.0011 µM (EC50). Besides, in assay [2] (setting [12]), the “t0.5, time to 50% reversal of the increase in coronary blood flow” value came to 9.5 ± 0.8 min and the “t0.9, time to 90% reversal of the increase in coronary blood flow” value is listed as 22.5 ± 1.6 min.
As for `CC(C)n1cc(-c2nc(N)c3ncn([C@@H]4O[C@H](CO[Si](C)(C)C(C)(C)C)[C@@H](O[Si](C)(C)C(C)(C)C)[C@H]4O[Si](C)(C)C(C)(C)C)c3n2)cn1` [Compound 16, 9-{(2R,3R,4R,5R)-3,4-bis(1,1,2,2-tetramethyl-1silapropoxy)-5-[(1,1,2,2-tetramethyl-1-silapropoxy)methyl]oxolan-2-yl}-2-[1-(1-methylethyl)pyrazol 4-yl]purine-6-ylamine], in assay [6] (conclusion of Example 5), the “A2A affinity” value is listed as “low affinity A2A agonist”.
Take `Nc1nc(-c2cnn(CCCc3ccccc3)c2)nc2c1ncn2C1O[C@H](CO)[C@@H](O)[C@H]1O` (stereo partly drawn) [Compound 21, (4S,2R,3R,5R)-2-{6-amino-2-[1-(3-phenylpropyl)pyrazolyl-4-yl]purin-9-yl}-5-(hydroxymethyl)oxolane-3,4-diol]: in assay [3] (setting [13]), the “t 0.5, time to 50% reversal of the increase in coronary conductance” value was 8.3 ± 0.4 min and the “t 0.9, time to 90% reversal of the increase in coronary conductance” value stood at 12.6 ± 0.4 min. The Ki in assay [1] (setting [9]) was found to be 6.13 ± 0.582 µM.
`CCCCC#Cc1nc(N)c2ncn([C@@H]3O[C@H](C(=O)NCC)[C@@H](O)[C@H]3O)c2n1` [HENECA, reference compound]: in assay [3] (setting [13]), the “t 0.5, time to 50% reversal of the increase in coronary conductance” value amounted to 28.6 ± 1.1 min and the “t 0.9, time to 90% reversal of the increase in coronary conductance” value stood at 32.8 ± 3.1 min.
In the case of `CCCCCCC#Cc1nc(N)c2ncn([C@@H]3O[C@H](CO)[C@@H](O)[C@H]3O)c2n1` [YT-146, reference compound], in assay [3] (setting [13]), the “t 0.5, time to 50% reversal of the increase in coronary conductance” value is 17.7 ± 1.0 min and the “t 0.9, time to 90% reversal of the increase in coronary conductance” value was 28.5 ± 4.0 min. For the same molecule, in assay [2] (setting [12]), the “CBF ("Fold Increase") above baseline, maximal” value is reported as 3.44 ± 0.47 fold and the “t0.9, time to 90% reversal of the increase in coronary blood flow” value worked out at 32.9 ± 5.6 min.
